The test system of data set [1] is four isogenic LN229 glioblastoma cell lines. Description: Short-term cell viability assays, statements across the isogenic lines. The format is cell-based, human. The note with it: regardless of MMR status. On the procedure:
LN229 MGMT- and MGMT+ cell lines were a gift from B. Kaina (Johannes Gutenberg University Mainz, Mainz, Germany) and grown in Gibco® Duilbecco's Modified Eagle Medium with 10% fetal bovine serum (DMEM). For each compound tested, the relationship between MGMT status and MMR status and compound activity, in terms of IC50 values ([…]), was determined by the following method. On day 1, LN229 isogenic cells of varying MGMT and MMR status were seeded in 96 well format at a density of 2000 cells/well in 100 μL of DMEM media and allowed to adhere overnight. On day 2, a drug master plate was made with 100×the desired maximal concentration of test compound and serially diluted by 2 until 100×the minimal desired concentration, with one DMSO control. Then daughter plates were created with varied concentrations from 3-times the minimal concentration to 3-times the maximal desired concentration. Afterwards, 50 μL of daughter drug plate was added to 100 μL of the seeded cells for a final concentration of 1×in triplicate. Cells were allowed to grow for 6 days. On day 7, the cells were fixed, and stained with Hoechst nuclear dye and imaged to determine growth inhibition.
For each compound tested, the relationship between MGMT status and MMR status and compound activity, in terms of IC50 values (in μM), was determined. In addition, for each compound, the therapeutic index (TI) was calculated, according to the equation MGMT TI=IC50 (MGMT+/MMR+) divided by IC50 (MGMT−/MMR+). The T1 indicates the efficacy of a compound in treating the targeted MGMT-cancer cells as compared to potential for the same compound to damage, or have adverse effects against, normal cells which are MGMT+cells, The higher the value of the TI, the safer the compound is. […] MMR RI (resistance index)=IC50 (MGMT−/MMR−) divided by IC50 (MGMT−/MMR+). The higher the value of the RI, the less likely that resistance to the compound will develop.
Short-term Cell Viability Assay. Cells were seeded in 96-well plates at 1000 or 2000 cells/well and allowed to adhere at 23° C. for 60 min and then incubated overnight at 37° C. Cells were treated with indicated concentrations of compounds in triplicate for 4-6 days prior to fixation with 3.7% paraformaldehyde and nuclear staining with 1 μg/mL Hoechst 33342 dye. Cells were imaged on a Cytation 3 imaging reader (BioTek) and quantified using CellProfiler software. For in vitro short-term growth delay experiments, IC50 values were determined from the nonlinear regression equation, [inhibitor] vs normalized response with variable slope.

The test system of a further data set is MGMT−/MMR− cells. Description: IR alkaline comet assay, LN229 MGMT-/MMR-, time course. The format is cell-based, human. To be noted: time points 2-24 h. On the procedure: The IR alkaline comet assay, adapted for ICL detection was performed to determine if ICLs were formed in MGMT-cells treated with KL-50. In this assay, cells were sequentially exposed to genotoxins and ionizing radiation, and then analyzed by single cell alkaline gel electrophoresis. Attenuation of the IR-induced comet tail is indicative of ICL formation.
IR Alkaline Comet Assay. This assay was performed utilizing the CometAssay™ Kit (Trevigen) according to the alkaline assay protocol, with the addition of slide irradiation post-lysis. Cells were trypsinized, washed with 1×PBS, added to melted Comet LMAgarose (Trevigen), and spread on Trevigen CometSlides at a density of 1000 cells per sample in 50 μL. Lysis solution (Trevigen) with 10% DMSO was added overnight at 4° C. Slides were removed from lysis buffer and irradiated to 0 or 10 Gy using an XRAD 320 X-Ray System (Precision X-Ray) at 320 kV, 12.5 mA, and 50.0 cm SSD, with a 2 mm Al filter and 20 cm×20 cm collimator. Slides were then placed in alkaline buffer (200 mM NaOH, 1 mM EDTA) for 45 min, followed by electrophoresis in 850 mL alkaline buffer for 45 min at 4° C. Slides were washed and stained with SYBR gold (Invitrogen) per Trevigen assay protocol. Slides were imaged on a Cytation 3 imaging reader (BioTek), and comets were analyzed using CometScore 2.0 software (TriTek).

In data set [2] the test system is LN229 MGMT−/MMR− flank tumors. Briefly: Murine flank tumor model, LN229 MGMT-/MMR-. The format is in vivo. To be noted: for tumor growth, MGMT−/MMR− flank tumors: P.O.; for median OS: LN229 MGMT−/MMR− flank tumor-bearing mice, 5 mg/kg. The source says: FIGS. 9A-91: KL-50 is safe and efficacious on both MGMT−/MMR+ and MGMT−/MMR-flank tumors over a wide range of treatment regimens and conditions. […] (FIG. 9C) Mean body weight of mice during LN229 flank tumor experiments. (FIG. 9D) Kaplan-Meier analysis of LN229 MGMT−/MMR− xenograft flank tumor-bearing mice to determine survival rate based on death, removal from study if mouse body weight loss exceeded 20% of initial body weight, or if tumor volume exceeded 2000 mm^3. […] (FIGS. 9H-91) Xenograft LN229 MGMT−/MMR+ and LN229 MGMT−/MSH6—flank tumors with a larger average starting tumor size of −400 mm^3 and −350 mm^3 respectively, treated with 3 weekly cycles of P.O administration of 10% cyclodextrin (n=4) or KL-50 (n=4, 3 cycles of 25 mg/kg on Monday, Wednesday, and Friday). The study period was limited by control groups which had to be euthanized for exceeding the ethical maximum allowed tumor size, thus ending the study. In all panels, points, mean; error bars, SEM; *, P<0.05; **, P<0.01; ***, P<0.001; ****, P<0.0001; ns, not significant.
Mouse Protocols for Flank Studies. A mouse tumor model was established by subcutaneously implanting human LN229 (MGMT−/MMR+) or LN229 (MGMT−/MMR−) cells. Cells were cultured as a monolayer in DMEM+10% FBS (Thermo Fisher) at 37° C. in a humidified atmosphere with 5% CO2 and passaged between one and three days prior to implantation and media was replaced every 2-3 days as needed to maintain cell viability. Cells were not allowed to exceed 80% confluency. On the day of implantation, cells were trypsinized, washed with complete media and pelleted by centrifugation at 1200 rpm for 5 minutes. The supernatant was decanted, and cells were washed three times with sterile PBS and pelleted by centrifugation. During the final centrifugation, viability was determined using trypan blue exclusion. Cells were resuspended in sterile PBS and diluted 1:1 in Matrigel (Coming, Cat #47743-716) for a final concentration of 5×10^6 cells/100 μL. 5 million cells were injected into the flank of female nude mice (Envigo, Hsd:Athymic Nude-Fox1nu, 3-4 weeks age, 15 g). […] Caliper measurements were obtained during the dosing period and at least two weeks following treatment. Mice were euthanized if body weight loss exceeded 20% or if tumor volume increased to greater than 2000 mm^3. Kaplan-Meier analysis was used to evaluate survival rate based on death or removal from study.

Turning to `Cn1nnc2c(C(N)=O)ncn2c1=O` [TMZ, 4-methyl-5-oxo-2,3,4,6,8-pentazabicyclo[4.3.0]nona-2,7,9-triene-9-carboxamide, reference compound], in data set [1], the “activity in MGMT+ cells, in words” value is “essentially inactive”. In the data set with MGMT−/MMR− cells, the “DNA damage in unirradiated samples” value is “maximal damage at 2 h” and the “DNA mobility after IR, rate of ICL formation” value is “did not induce a statistically significant decrease in DNA migration within 24 h”. Also, in data set [2] (5 mg/kg MWF x 3 weeks), the “tumor growth, MGMT−/MMR− flank tumors” value is recorded as “no efficacy”. The “median OS” value in data set [2] (Kaplan-Meier) amounted to 10 weeks.

As for `NC(=O)c1ncn2c(=O)n(CCF)nnc12` [KL-50], the “activity in MGMT+ cells, in words” value in data set [1] was “limited activity”. In the data set on MGMT−/MMR− cells, the “DNA damage in unirradiated samples” value is given as “maximal damage at 2 h” and the “DNA mobility after IR, rate of ICL formation” value is on record as “time-dependent decrease in DNA mobility”. For the same compound, the “tumor growth, MGMT−/MMR− flank tumors” value in data set [2] (5 mg/kg MWF x 3 weeks) is listed as “potently suppressed tumor growth”. Besides, the “body weight during flank tumor experiments” value in data set [2] (5 mg/kg MWF x 3 weeks, compared to TMZ or control) is on record as “no significant changes in body weight”. Moreover, the “median OS” value in data set [2] (Kaplan-Meier) is given as “greater than 15 weeks”. Also, the “increase in median OS for KL-50 vs TMZ” value in data set [2] (Kaplan-Meier, MGMT−/MMR− flank) is recorded as “greater than 5 week”.
